pIC50: −log10 of the molar value. Where “and” joins values, the source holds several entries; their conditions need not be identical. Equal entries are not always repeated. Where two headings read alike, the source gives them in different places.
Key:
[1] = tested on: RET alterations in ctDNA; assay: ctDNA profiling (1021-gene NGS panel); type: in vivo, human; conditions: Cycle 1 Day 28, of 23 patients
Experimental: A retrospective analysis of circulating tumor DNA (ctDNA) profiling was performed using longitudinal plasma samples obtained at baseline, Cycle 1 Day 28, and post-progressive disease. At baseline, blood samples from all patients were subjected for NGS. Among them, 67 (54.9%) patients had detectable RET alterations in ctDNA, including KIF5B-RET (51/122, 41.8%), CCDC6-RET (5/122, 4.1%), NCOA4-RET (3/122, 2.5%), RET^M918T mutation (7/122, 5.7%) and other RET variation (1/122, 0.8%).
For molecular profiling, plasma samples were collected at baseline, Cycle 1 Day 28, and post-progressive disease, and the ctDNA were isolated for analysis. Gene alteration status was analyzed at a central laboratory using a validated, commercially available 1021-gene NGS panel (GenePlus, Beijing, China).

[2] = tested on: TT cells (RET^C634W); assay: Proliferation assay (CellTiter-Glo); type: cell-based; conditions: Homo sapiens, 72 hours, read-out: Cellular Viability IC50
Experimental: The cell lines HEK293T, Baf3, TT cell and NIH-3T3 were obtained from the Cell Resource Center, Peking Union Medical College (PCRC). […] All stably transformed BaF3 cells were cultured in RPMI 1640 without IL‐3. […] Cells were cultured at 37 °C under 5 % CO2 and high humidity conditions. […] Cell viability was assessed by luminescence using CellTiter-Glo 2.0 assay (Promega). IC50 curve fitting was performed using GraphPad Prism 9.0.

[3] = tested on: CYP1A2; assay: CYP induction in hepatocytes; type: in vitro ADME, human; conditions: 1, 5, 50 μM, three donors
[4] = Acute toxicity, single oral gavage; type: in vivo; conditions: SD, rat, in vivo, oral, read-out: MTD, single dose
[5] = tested on: SD rats; assay: Acute toxicity, single oral gavage; type: in vivo; conditions: acute toxicity study in SD rats
[6] = Acute toxicity, single oral gavage; conditions: both sexes, beagle, dog, in vivo, read-out: MTD, single dose
[7] = tested on: patients with advanced RET-altered solid tumors; assay: Phase 1 trial: treatment-related adverse events (CTCAE v5.0), DLT, MTD;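 note: Open-label single-arm first-in-human phase 1 study at six Chinese sites with 3 + 3 dose escalation and expansion, adverse events given descriptively as patient counts and percentages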
Experimental: This single-arm, open-label, first-in-human, dose-escalation and dose-expansion phase 1 study was conducted across six sites in China (NCT05278364). […] Dose escalation followed a 3 + 3 design, incorporating accelerated titration[41] for the first two dose levels and a modified Fibonacci dose escalation.[42]
The primary endpoints for this study were to determine the MTD, DLT, RP2D and safety. […] All responses required a confirmation of radiologic assessment at least 4 weeks after the first assessment.
The Pharmacokinetic Analysis Set (PKAS) included all patients with at least one evaluable PK sample (n = 43). Descriptive statistics were used for baseline data, summarizing continuous data with mean, standard deviation, median, minimum, and maximum, and categorical data with frequency and percentage. Safety analysis was descriptive, including adverse events summarized by frequency and severity. PK parameter analysis was performed using Phoenix WinNonlin version 8.0 (Certara L.P. [Pharsight], St. Louis, MO, USA), and results were summarized using geometric mean and coefficient of variation. CIs for response rates were calculated using the Clopper-Pearson method. […] All analysis were performed with SAS statistical software, version 9.2 (SAS Institute).

With `COc1ccc(CN2C3CC2CN(c2ccc(-c4cc(N5CC(C)(O)C5)cn5ncc(C#N)c45)cn2)C3)cn1` [SY-5007, 6-(3-hydroxy-3-methylazetidin-1-yl)-4-(6-(6-((6-methoxypyridin-3-yl)methyl)-3,6-diazabicyclo[3.1.1]heptan-3-yl)pyridin-3-yl)pyrazolo[1,5-a]pyridine-3-carbonitrile] the “Patients with complete RET clearance in ctDNA” value [1] was 21 patients, the pIC50 [2] was 8.04 and the CYP1A2 induction [3] was “no induction”. For the same compound, the MTD ([4]; female, females) was 500 mg/kg, the MTD ([4]; male, males) was 250 mg/kg and the “Kidney: urea” value [5] was “elevated urea”. For the same compound, the MTD [6] was 200 mg/kg, the “Dose-limiting toxicity (DLT)” value ([7]; 20 mg QD to 200 mg BID) was “No dose-limiting toxicity (DLT) was observed” and the Albuminuria ([7]; All Grade, Total (n = 122)) was 45 (36.9) n (%). The Anemia ([7]; All Grade, Total (n = 122)) was 27 (22.1) n (%), the “Any TRAE” value ([7]; All Grade, Total (n = 122)) was 96.7 n (%) and 118 (96.7) n (%) and the “Conjugated Hyperbilirubinemia” value ([7]; All Grade, Total (n = 122)) was 23 (18.9) n (%). The Diarrhea ([7]; All Grade, Total (n = 122)) was 54.1 n (%) and 66 (54.1) n (%), the Dry mouth ([7]; All Grade, Total (n = 122)) was 40 (32.8) n (%) and the Facial edema ([7]; All Grade, Total (n = 122)) was 35 (28.7) n (%). The Hyperbilirubinemia ([7]; All Grade, Total (n = 122)) was 51 (41.8) n (%), the Hyperglycemia ([7]; All Grade, Total (n = 122)) was 22 (18.0) n (%) and the Hyperphosphatemia ([7]; All Grade, Total (n = 122)) was 42 (34.4) n (%). For the same compound, the Hypertension ([7]; All Grade, Total (n = 122)) was 50 (41.0) n (%), the Hypertriglyceridemia ([7]; All Grade, Total (n = 122)) was 55 (45.1) n (%) and the Hyperuricemia ([7]; All Grade, Total (n = 122)) was 41 (33.6) n (%). For the same compound, the Hypoalbuminemia ([7]; All Grade, Total (n = 122)) was 33 (27.0) n (%), the Hypocalcemia ([7]; All Grade, Total (n = 122)) was 34 (27.9) n (%) and the Hyponatremia ([7]; All Grade, Total (n = 122)) was 23 (18.9) n (%). For the same compound, the Hypopotassemia ([7]; All Grade, Total (n = 122)) was 19 (15.6) n (%), the Hypothyroidism ([7]; All Grade, Total (n = 122)) was 38 (31.1) n (%) and the Increased alanine aminotransferase ([7]; All Grade, Total (n = 122)) was 56.6 n (%) and 69 (56.6) n (%). For the same compound, the Increased aspartate aminotransferase ([7]; All Grade, Total (n = 122)) was 69.7 n (%) and 85 (69.7) n (%), the “Increased blood alkaline phosphatase” value ([7]; All Grade, Total (n = 122)) was 43 (35.2) n (%) and the Increased blood creatine ([7]; All Grade, Total (n = 122)) was 45 (36.9) n (%). The “Increased blood creatine phosphokinase” value ([7]; All Grade, Total (n = 122)) was 40 (32.8) n (%), the “Increased blood creatine phosphokinase MB” value ([7]; All Grade, Total (n = 122)) was 54 (44.3) n (%) and the “Increased blood lactate dehydrogenase” value ([7]; All Grade, Total (n = 122)) was 51 (41.8) n (%). The “Increased γ-Glutamyl transferase” value ([7]; All Grade, Total (n = 122)) was 28 (23.0) n (%), the Leukopenia ([7]; All Grade, Total (n = 122)) was 56 (45.9) n (%) and the Lymphopenia ([7]; All Grade, Total (n = 122)) was 30 (24.6) n (%). The Neutropenia ([7]; All Grade, Total (n = 122)) was 54.1 n (%) and 66 (54.1) n (%), the Palmoplantar erythema syndrome ([7]; All Grade, Total (n = 122)) was 23 (18.9) n (%) and the Peripheral edema ([7]; All Grade, Total (n = 122)) was 23 (18.9) n (%). The Thrombocytopenia ([7]; All Grade, Total (n = 122)) was 50 (41.0) n (%), the Weakness ([7]; All Grade, Total (n = 122)) was 20 (16.4) n (%) and the Weight loss ([7]; All Grade, Total (n = 122)) was 22 (18.0) n (%). The Xeromycteria ([7]; All Grade, Total (n = 122)) was 21 (17.2) n (%), the “Conjugated Hyperbilirubinemia” value ([7]; Grade ⩾ 3, dose group) was 0 (0.0) n (%) and the Dry mouth ([7]; Grade ⩾ 3, dose group) was 0 (0.0) n (%). The Facial edema ([7]; Grade ⩾ 3, dose group) was 0 (0.0) n (%), the Hyperglycemia ([7]; Grade ⩾ 3, dose group) was 0 (0.0) n (%) and the Hyperphosphatemia ([7]; Grade ⩾ 3, dose group) was 0 (0.0) n (%). For the same compound, the Hyperuricemia ([7]; Grade ⩾ 3, dose group) was 0 (0.0) n (%), the Hypoalbuminemia ([7]; Grade ⩾ 3, dose group) was 0 (0.0) n (%) and the Hypothyroidism ([7]; Grade ⩾ 3, dose group) was 0 (0.0) n (%). For the same compound, the “Increased blood alkaline phosphatase” value ([7]; Grade ⩾ 3, dose group) was 0 (0.0) n (%), the Increased blood creatine ([7]; Grade ⩾ 3, dose group) was 0 (0.0) n (%) and the “Increased blood lactate dehydrogenase” value ([7]; Grade ⩾ 3, dose group) was 0 (0.0) n (%). The Peripheral edema ([7]; Grade ⩾ 3, dose group) was 0 (0.0) n (%), the Xeromycteria ([7]; Grade ⩾ 3, dose group) was 0 (0.0) n (%) and the “Dose discontinuation due to TRAE” value ([7]; n = 122) was 2 (1.6%) n (%). For the same compound, the “Dose interruption due to diarrhea” value ([7]; n = 122) was 10.7%, the “Dose interruption due to hypertension” value ([7]; n = 122) was 12.3% and the “Dose reduction due to hypertension” value ([7]; n = 122) was 5.7%. The TRAE-induced dose interruption ([7]; n = 122) was 56 (45.9%) n (%), the TRAE-induced dose reduction ([7]; n = 122) was 29 (23.8%) n (%) and the Treatment-related deaths ([7]; n = 122) was “no treatment-related deaths”. The “Treatment-related serious adverse events (TRSAEs)” value ([7]; n = 122) was 13 (10.7%) n (%) and the “Maximum tolerated dose (MTD)” value ([7]; up to 200 mg BID) was “not reached”.

Source: publication PMC11532403 (Signal Transduction and Targeted Therapy, 2024)
